Laboratory results reported in patent US6228843A (priority 2000, dated 2001).

Assays:
PKC-α [1] = target: T1, PKC-α (Bos taurus, UniProt P04409); assay: PKC isozyme expression by Western blot: PKC-α degradation; format: cell-based, bovine
T1 construct: proteolytic degradation of PKC-α in smooth muscle cells; endogenous in cells; host or cells: adult bovine pulmonary artery smooth muscle cells (PA SMC)
Procedure: (§1) Hypoxic growth was induced by priming with the PKC activator, 10 nM PMA. Proliferative response was measured by ^3 H-thymidine incorporation and cell counts. Isozyme expression was measured by Western blot.

PKC βI = target: T2, PKC βI (Bos taurus, UniProt P05126); assay: PKC isozyme expression by Western blot: βI; format: cell-based, bovine; details: adult PA SMC
T2 construct: isozyme expressed in these adult cells (βI); endogenous in cells; host or cells: adult bovine pulmonary artery smooth muscle cells (PA SMC)
Procedure: […]. Hypoxic growth was induced by priming with the PKC activator, 10 nM PMA. Proliferative response was measured by ^3 H-thymidine incorporation and cell counts. Isozyme expression was measured by Western blot. […]. […] […].

PKC-α [2] = target: T3, PKC-α (Mus musculus, UniProt P20444); assay: PKC-α protein levels in whole lung homogenates of treated mice; format: in vivo; details: chronic treatment of mice
T3 construct: PKC-α protein levels in whole lung homogenates; from tissue; host or cells: whole lung homogenates of treated mice

[3] = tested on: adult bovine pulmonary artery smooth muscle cells; format: cell-based
Procedure: as §1

PKC-α and β = assay: PKC activity in PA SMC preparation; format: cell-based, bovine

T2 sequence (P05126 whole entry): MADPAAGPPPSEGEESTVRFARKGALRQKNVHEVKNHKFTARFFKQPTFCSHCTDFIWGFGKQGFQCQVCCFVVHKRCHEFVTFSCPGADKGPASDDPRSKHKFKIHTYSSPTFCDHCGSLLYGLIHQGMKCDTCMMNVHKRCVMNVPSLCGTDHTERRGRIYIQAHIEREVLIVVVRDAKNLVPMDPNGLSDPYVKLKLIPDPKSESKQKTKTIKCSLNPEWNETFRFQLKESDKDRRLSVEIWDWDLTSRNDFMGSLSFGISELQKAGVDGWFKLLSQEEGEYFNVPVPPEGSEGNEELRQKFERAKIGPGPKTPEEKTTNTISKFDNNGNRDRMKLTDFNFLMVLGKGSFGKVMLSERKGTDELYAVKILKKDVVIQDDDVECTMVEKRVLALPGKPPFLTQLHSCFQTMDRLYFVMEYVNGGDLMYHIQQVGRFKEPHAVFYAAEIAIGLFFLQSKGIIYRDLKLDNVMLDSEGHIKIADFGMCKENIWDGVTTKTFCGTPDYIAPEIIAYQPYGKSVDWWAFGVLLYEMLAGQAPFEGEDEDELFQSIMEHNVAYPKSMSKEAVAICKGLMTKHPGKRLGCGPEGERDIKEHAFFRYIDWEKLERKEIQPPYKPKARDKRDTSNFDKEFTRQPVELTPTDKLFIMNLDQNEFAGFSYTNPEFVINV

| SMILES | threshold concentration to induce PKC-α degradation (PKC-α [1]) [nM] | time at which PKC-α degradation is complete (PKC-α [1]; 100 nM) [h] | time at which PKC-α degradation is first detectable (PKC-α [1]; 100 nM) [h] | dose dependence of PKC-α degradation and hypoxic growth (FIG. 6) (PKC-α [1]; bovine PA SMC) | time dependence of PKC-α degradation (FIG. 5) (PKC-α [1]; bovine PA SMC) | degradation of Ca2+-dependent isozyme βI (PKC βI) | PKC-α protein levels in whole lung homogenates (FIG. 8) (PKC-α [2]) | hypoxia-induced PA SMC proliferation (FIG. 4) [3] | activity of PKC-α and β (FIG. 4) (PKC-α and β) |
| --- | --- | --- | --- | --- | --- | --- | --- | --- | --- |
| CCCC=CC=CC(=O)OC1C(=CC(=O)OC)CC2CC(C(C)O)OC(=O)CC(O)CC3CC(OC(C)=O)C(C)(C)C(O)(CC4CC(=CC(=O)OC)CC(C=CC(C)(C)C1(O)O2)O4)O3 (stereo not drawn) [bryostatin-1] | 10 | ≤ 24 | ≤ 1 | dose-dependent effect | time dependent | No degradation | decreases PKC-α protein levels |  |  |
| Cn1c2ccccc2c2c3c(c4c5ccccc5n(CCC#N)c4c21)CNC3=O [Go6976] |  |  |  |  |  |  |  | inhibits hypoxia-induced PA SMC proliferation | inhibits activity of PKC-α and β |
